{"source": "patent US20170349546A1", "about": "“Light-Activated Two-Component Protein Binding Matrix” (National University of Singapore, priority 2014, published 2017)", "test": "Spiropyran modified beads pull-down of biotinylated peptide, residual HRP-streptavidin measured in solution", "type": "binding", "conditions": "beads incubated with 10 μM peptide, washed twice with PBS, 1 μM HRP-conjugated streptavidin; exposed to light at time=60 minutes", "procedure": "FIG. 3 is a line graph representing binding of peptides to beads selectively modified with a spiropyran molecule. The selectively modified beads were incubated with 10 μM of peptide B7, LAGPQMHGK (SEQ ID NO: 62), for the indicate length of time, and then washed twice with phosphate buffered saline (PBS). The beads were when incubated with 1 μM horseradish (HRP)-conjugated streptavidin, and the residual HRP-streptavidin was measured in solution. FIG. 3 illustrates the % absorbance of the beads after the indicated period of time. The higher the absorbance, the higher the concentration of streptavidin in the bulk solution. […]\nWash 1 mL agarose beads with 2 column volumes DMSO (take from bottle in anhydrous fashion). In different container, mix 2.5 mg spiropyran and 80 mg EDC and 100 mg of NHS. Dissolve these compounds in DMSO; wait for 10 minutes at room temp. Add beads (which are now in DMSO) to this mixture. Make sure good mixing/suspension, i.e. enough DMSO to fully suspend the entire matrix. Agitate for 12 hours. Wash modified matrix with DMSO×20 c.v. to wash out free compounds. Remove DMSO with water was ×20 column volumes. Then store in water or 20% ethanol. See FIG. 7 for examples of bead conjugation techniques.", "note": "Where no end group is shown, it is not given here. The star is where a group is joined. Biotin = O=C1N[C@H]2[C@H](CS[C@H]2CCCCC(=O)*)N1"}
{"sequence": "LAGPQMHGK (LAGPQMHGK(Biotin)) [peptide B7, biotinylated peptide aptamer, biotin covalently linked via the amine on the C-terminal lysine residue]", "values": [{"measurement": "residual HRP-streptavidin in bulk solution (% absorbance) after exposure to light", "result": "released back into the bulk solution"}]}
